Assay results published in patent publication US7335665B2, “Spirocyclic piperidines as MCH1 antagonists and uses thereof” (H - Lundbeck A/S, priority 2003, dated 2008).
pKi: −log10 of the molar value.

Biological target: T1, rat MCH1 receptor (Rattus norvegicus, UniProt P97639)
T1 construct: expressed in transfected cells; host or cells: Human embryonic kidney Peak rapid 293 cells (Peakr293), transient, calcium phosphate; membranes
Experiment: Radioligand binding assay at cloned rat MCH1 receptor ([3H]Compound A displacement)
Details: KI, cloned rat MCH1, membranes of transfected Peakr293 cells, 0.08 nM [3H]Compound A, 25° C., 90 minutes
Procedure: For binding assays, pellets of transfected cells are suspended in ice-cold buffer (20 mM Tris.HCl, 5 mM EDTA, pH 7.4) and homogenized by sonication for 7 sec. The cell lysates are centrifuged at 200×g for 5 min at 4° C. The supernatants are then centrifuged at 40,000×g for 20 min at 4° C. The resulting pellets are washed once in the homogenization buffer and suspended in binding buffer (see methods for radioligand binding). Protein concentrations are determined by the method of Bradford (1976) using bovine serum albumin as the standard. Binding assays are usually performed immediately, however it is possible to prepare membranes in batch and store frozen in liquid nitrogen for future use.
Radioligand binding assays for the rat MCH1 receptor were carried out using plasmid pcDNA3.1-rMCH1-f (ATCC Patent Deposit Designation No. PTA-3505). Plasmid pcDNA3.1-rMCH1-f comprises the regulatory elements necessary for expression of DNA in a mammalian cell operatively linked to DNA encoding the rat MCH1 receptor so as to permit expression thereof. Plasmid pcDNA3.1-rMCH1-f was deposited on Jul. 5, 2001, with the American Type Culture Collection (ATCC), 12301 Parklawn Drive, Rockville, Md. 20852, U.S.A. under the provisions of the Budapest Treaty for the International Recognition of the Deposit of Microorganisms for the Purposes of Patent Procedure and was accorded ATCC Patent Deposit Designation No. PTA-3505.
Human embryonic kidney Peak rapid 293 cells (Peakr293 cells) were transiently transfected with DNA encoding the MCH1 receptor utilizing the calcium phosphate method and cell membranes were prepared as described above. Binding experiments with membranes from Peakr293 cells transfected with the rat MCH1 receptor were performed with 0.08 nM [^3H]Compound A (custom labeled by Amersham) (the synthesis of Compound A is described in detail below) using an incubation buffer consisting of 50 mM Tris pH 7.4, 10 mM MgCl2, 0.16 mM PMSF, 1 mM 1,10 phenantroline and 0.2% BSA. Binding was performed at 25° C. for 90 minutes. Incubations were terminated by rapid vacuum filtration over GF/C glass fiber filters, presoaked in 5% PEI using […] Tris pH 7.4 as wash buffer. In all experiments, nonspecific binding is defined using […] Compound A.
The compounds described above were assayed using cloned rat MCH1.

T1 sequence (P97639 whole entry): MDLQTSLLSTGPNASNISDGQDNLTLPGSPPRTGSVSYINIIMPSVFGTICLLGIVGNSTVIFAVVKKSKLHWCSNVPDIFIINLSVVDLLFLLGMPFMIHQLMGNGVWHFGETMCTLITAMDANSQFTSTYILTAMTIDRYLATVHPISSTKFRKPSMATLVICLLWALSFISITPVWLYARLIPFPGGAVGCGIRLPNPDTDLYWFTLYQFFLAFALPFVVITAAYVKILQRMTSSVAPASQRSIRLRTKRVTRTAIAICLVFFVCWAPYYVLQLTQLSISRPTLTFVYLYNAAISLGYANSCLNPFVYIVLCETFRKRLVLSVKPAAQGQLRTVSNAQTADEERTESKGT

SMILES	pKi
Cc1ccc(C(C(=O)NCCCN2CCC3(CC2)C(=O)CCc2ccccc23)c2ccc(C)cc2)cc1 [Example 97, 2,2-BIS(4-METHYL)PHENYL)-N-[3-(2-OXOSPIRO[1,3,4-TRIHYDRONAPHTHALENE-1,4′-PIPERIDINE]-11-YL)PROPYL]ACETAMIDE]	6.37
O=C(NCCCN1CCC2(CCc3ccccc32)CC1)c1ccc(Oc2cc(Cl)cc(Cl)c2)o1 [Example 17, [5-(3,5-DICHLOROPHENOXY)(2-FURYL)]-N-(3-(SPIRO[INDANE-1,4′-PIPERIDINE]-10-YL)PROPYL)CARBOXAMIDE]	6.03
O=C(NCCCN1CCC2(C=Cc3ccccc32)CC1)C(c1ccc(F)cc1)c1ccc(F)cc1 [Example 67, 2,2-BIS(4-FLUOROPHENYL)-N-(3-(SPIRO[INDENE-1,4′-PIPERIDINE]-10-YL)PROPYL)ACETAMIDE]	8.62
S=C(NCCCCCCN1CCC2(CCc3ccccc32)CC1)Nc1cccc2ccccc12 [Example 24, (NAPHTHYLAMINO)[(6-SPIRO[INDANE-1,4′-PIPERIDINE]-10-YLHEXYL)AMINO]METHANE-1-THIONE]	6.18
O=C(NCCCCN1CCC2(CCc3ccccc32)CC1)c1sc2ccccc2c1Cl [Example 34, (3-CHLOROBENZO[B]THIOPHEN-2-YL)-N-(4-(SPIRO[INDANE-1,4′-PIPERIDINE]-10-YL)BUTYL)CARBOXAMIDE]	6.05
O=C(NCCCCCN1CCC2(CCc3ccccc32)CC1)C(c1ccccc1)c1ccccc1 [Example 3, 2,2-DIPHENYL-N-(5-(SPIRO[INDANE-1,4′-PIPERIDINE]-10-YL)PENTYL)ACETAMIDE]	6.42
O=C(Cc1ccc(F)c(F)c1)NCCCN1CCC2(CC1)OCc1ccccc12 [Example 86, 2-(3,4-DIFLUOROPHENYL)-N-(3-(SPIRO[1,3-DIHYDROISOBENZOFURAN-1,4′-PIPERIDINE]-10-YL)PROPYL)ACETAMIDE]	6.42
CC(C(=O)NCCCN1CCC2(CC1)OCc1ccccc12)(c1ccccc1)c1ccccc1 [Example 88, 2,2-DIPHENYL-N-(3-(SPIRO[1,3-DIHYDROISOBENZOFURAN-1,4′-PIPERIDINE]-10-YL)PROPYL)PROPANAMIDE]	6.84
O=C(Cc1ccc(F)cc1)NCCCCN1CCC2(CCc3ccccc32)CC1 [Example 9, 2-(4-FLUOROPHENYL)-N-(4-(SPIRO[INDANE-1,4′-PIPERIDINE]-10-YL)BUTYL)ACETAMIDE]	6.16

Same assay, conditions: cloned rat MCH1, membranes of transfected Peakr293 cells, 0.08 nM [3H]Compound A, 25° C., 90 minutes; read-out: KI

SMILES	pKi
O=C(NCCCCCCN1CCC2(CCc3ccccc32)CC1)c1ccc(-c2ccccc2)cc1 [Example 29, (4-PHENYL)PHENYL)-N-(6-(SPIRO[INDANE-1,4′-PIPERIDINE]-10-YL)HEXYL)CARBOXAMIDE]	6.37
CC(C(=O)NCCCN1CCC2(CCc3ccccc32)CC1)c1ccc(Cl)cc1 (centres unmarked) [Example 50, 2-(4-CHLOROPHENYL)-N-(3-(SPIRO[INDANE-1,4′-PIPERIDINE]-10-YL)PROPYL)PROPANAMIDE]	6.71
O=C(NCCCCCN1CCC2(CCc3ccccc32)CC1)c1cccnc1Oc1ccc(Cl)cc1 [Example 31, [2-(4-CHLOROPHENOXY)(3-PYRIDYL)]-N-(5-(SPIRO[INDANE-1,4′-PIPERIDINE]-10-YL)PENTYL)CARBOXAMIDE]	6.67
O=C(NCCCN1CCC2(CC1)OCc1ccccc12)C(c1ccc(Cl)cc1)c1ccc(Cl)cc1 [Example 90, 2,2-BIS(4-CHLOROPHENYL)-N-(3-(SPIRO[1,3-DIHYDROISOBENZOFURAN-1,4′-PIPERIDINE]-10-YL)PROPYL)ACETAMIDE]	8.27
O=C(NCCCCN1CCC2(CCc3ccccc32)CC1)Nc1ccc(-c2ccccc2)cc1 [Example 28, N-(4-PHENYL)PHENYL)[(4-(SPIRO[INDANE-1,4′-PIPERIDINE]-10-YL)BUTYL)AMINO]CARBOXAMIDE]	6.26
O=C(NCCCCN1CCC2(CCc3ccccc32)CC1)C(c1ccccc1)c1ccccc1 [Example 4, 2,2-DIPHENYL-N-(4-(SPIRO[INDANE-1,4′-PIPERIDINE]-10-YL)BUTYL)ACETAMIDE]	6.67
O=S(=O)(NCCCCCN1CCC2(CCc3ccccc32)CC1)c1cccc(C(F)(F)F)c1 [Example 21, (5-(SPIRO[INDANE-1,4′-PIPERIDINE]-10-YL)PENTYL){[3-(TRIFLUORO-METHYL)PHENYL]SULFONYL}AMINE]	6.00
O=C(NCCCCCN1CCC2(C=Cc3ccccc32)CC1)c1sc2ccccc2c1Cl [Example 36, (3-CHLOROBENZO[B]THIOPHEN-2-YL)-N-(5-(SPIRO[INDENE-1,4′-PIPERIDINE]-10-YL)PENTYL)CARBOXAMIDE]	6.13
O=C(NCCCN1CCC2(C=Cc3ccccc32)CC1)C1(c2ccc(Cl)cc2)CCCC1 [Example 69, [(4-CHLOROPHENYL)CYCLOPENTYL]-N-(3-(SPIRO[INDENE-1,4′-PIPERIDINE]-10-YL)PROPYL)CARBOXAMIDE]	6.98
O=C(NCCCN1CCC2(C=Cc3ccccc32)CC1)C1(c2ccc(Cl)cc2)CCCCC1 [Example 71, [(4-CHLOROPHENYL)CYCLOHEXYL]-N-(3-(SPIRO[INDENE-1,4′-PIPERIDINE]-10-YL)PROPYL)CARBOXAMIDE]	7.15
O=C(NCCCN1CCC2(CC1)OCc1ccccc12)C1(c2ccc(Cl)cc2)CC1 [Example 89, [(4-CHLOROPHENYL)CYCLOPROPYL]-N-(3-(SPIRO[1,3-DIHYDROISOBENZOFURAN-1,4′-PIPERIDINE]-10-YL)PROPYL)CARBOXAMIDE]	6.32
O=C(NCCCN1CCC2(CC1)Cc1ccccc1C2=O)C(c1ccc(Cl)cc1)c1ccc(Cl)cc1 [Example 91, 2,2-BIS(4-CHLOROPHENYL)-N-[3-(1-OXOSPIRO[INDANE-2,4′-PIPERIDINE]-10-YL)PROPYL]ACETAMIDE]	6.42
O=C(NCCN1CCC2(CCc3ccccc32)CC1)c1cccc(Cl)c1 [Example 43, (3-CHLOROPHENYL)-N-(2-(SPIRO[INDANE-1,4′-PIPERIDINE]-10-YLETHYL)CARBOXAMIDE]	6.29
O=C(NCCCCCN1CCC2(CCc3ccccc32)CC1)Nc1cc(Cl)cc(Cl)c1 [Example 25, N-(3,5-DICHLOROPHENYL)[(5-(SPIRO[INDANE-1,4′-PIPERIDINE]-10-YL)PENTYL)AMINO]CARBOXAMIDE]	6.27
O=C(NCCCN1CCC2(CC1)OCc1ccc(Cl)cc12)C(c1ccccc1)c1ccccc1 [Example 100, N-[3-(5-CHLOROSPIRO[1,3-DIHYDROISOBENZOFURAN-3,4′-PIPERIDINE]-10-YL)PROPYL]-2,2-DIPHENYLACETAMIDE]	8.59
O=C(NCCCCCCN1CCC2(CCc3ccccc32)CC1)c1cccnc1Oc1ccc(Cl)cc1 [Example 33, [2-(4-CHLOROPHENOXY)(3-PYRIDYL)]-N-(6-(SPIRO[INDANE-1,4′-PIPERIDINE]-10-YL)HEXYL)CARBOXAMIDE]	6.37
O=C(NCCCN1CCC2(CC1)OCc1ccc(F)cc12)C(c1ccccc1)c1ccccc1 [Example 101, N-[3-(5-FLUOROSPIRO[1,3-DIHYDROISOBENZOFURAN-3,4′-PIPERIDINE]-10-YL)PROPYL]-2,2-DIPHENYLACETAMIDE]	8.24
Cc1ccc(C(C(=O)NCCCN2CCC3(CC2)OCc2ccccc23)c2ccc(C)cc2)cc1 [Example 78, 2,2-BIS(4-METHYL)PHENYL)-N-(3-(SPIRO[1,3-DIHYDROISOBENZOFURAN-1,4′-PIPERIDINE]-10-YL)PROPYL)ACETAMIDE]	7.71
O=C(NCCCN1CCC2(CC1)C(=O)CCc1ccccc12)C(c1ccccc1)c1ccccc1 [Example 98, N-[3-(2-OXOSPIRO[1,3,4-TRIHYDRONAPHTHALENE-1,4′-PIPERIDINE]-11-YL)PROPYL]-2,2-DIPHENYLACETAMIDE]	6.17
CC(C)(C(=O)NCCCN1CCC2(CC1)OCc1ccccc12)c1ccc(Cl)cc1 [Example 81, 2-(4-CHLOROPHENYL)-2-METHYL-N-(3-(SPIRO[1,3-DIHYDROISOBENZOFURAN-1,4′-PIPERIDINE]-10-YL)PROPYL)PROPANAMIDE]	6.73
Cc1onc(-c2c(F)cccc2Cl)c1C(=O)NCCCCCCN1CCC2(CCc3ccccc32)CC1 [Example 12, [3-(2-CHLORO-6-FLUOROPHENYL)-5-METHYLISOXAZOL-4-YL]-N-(6-(SPIRO[INDANE-1,4′-PIPERIDINE]-10-YL)HEXYL)CARBOXAMIDE]	6.18
O=C(NCCCN1CCC2(C=Cc3ccccc32)CC1)C1(c2ccc(Cl)cc2)CC1 [Example 73, [(4-CHLOROPHENYL)CYCLOPROPYL]-N-(3-(SPIRO[INDENE-1,4′-PIPERIDINE]-10-YL)PROPYL)CARBOXAMIDE]	6.62
O=C(NCCCN1CCC2(CCCc3ccccc32)CC1)C(c1ccccc1)c1ccccc1 [Example 96, 2,2-DIPHENYL-N-(3-(SPIRO[1,2,3,4-TETRAHYDRONAPHTHALENE-1,4′-PIPERIDINE]-11-YL) PROPYL)ACETAMIDE]	6.89
